Measurements: ChEMBL document CHEMBL1201862, “PubChem BioAssay data set” (2004)
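Exposure lasted 48 hours, with cells grown in 96-well plates and compounds tested at five concentrations. At the GI50, growth is halved.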 Active and inactive are the calls of the source. No stated cut-off is given here; in the data, active = GI50 up to about 1.1 µM and inactive = higher.

Legend:
Experiment in all cases: NCI-60 cell line screen, 48 h
SW-620 = system: SW-620
RXF 393 = system: RXF 393
OVCAR-4 = system: OVCAR-4
CAKI-1 = system: CAKI-1
OVCAR-8 = system: OVCAR-8
IGROV-1 = system: IGROV-1
OVCAR-3 = system: OVCAR-3
COLO 205 = system: COLO 205
ACHN = system: ACHN
SF-539 = system: SF-539
NCI-H460 = system: NCI-H460
NCI-H23 = system: NCI-H23
SNB-19 = system: SNB-19
LOX IMVI = system: LOX IMVI
CCRF-CEM = system: CCRF-CEM
SK-MEL-28 = system: SK-MEL-28
OVCAR-5 = system: OVCAR-5

Measured: GI50

COC1=C(OC)C(=O)c2cc(SC)c(=O)c(SC)cc2C1=O
inactive: SW-620 33.5 µM | RXF 393 4.9 µM | OVCAR-4 12.2 µM | CAKI-1 72.4 µM | OVCAR-8 12.1 µM | IGROV-1 33.1 µM | OVCAR-3 8.93 µM | COLO 205 > 100 µM | ACHN 12.8 µM | SF-539 12.1 µM | NCI-H460 45.5 µM | NCI-H23 5.75 µM | SNB-19 22.6 µM | LOX IMVI 4.48 µM | CCRF-CEM 2.34 µM | SK-MEL-28 13.5 µM

O=P(Oc1ccc2ccccc2c1)(N1CC1)N1CC1
inactive: SW-620 > 100 µM | RXF 393 14.3 µM | OVCAR-5 34 µM | OVCAR-4 89.1 µM | OVCAR-8 59.2 µM | IGROV-1 83.4 µM | OVCAR-3 65.8 µM | COLO 205 55.6 µM | ACHN 2.61 µM | SF-539 17.6 µM | NCI-H460 8.99 µM | NCI-H23 4.43 µM | SNB-19 26.9 µM | LOX IMVI 28.8 µM | CCRF-CEM 44.9 µM | SK-MEL-28 28.4 µM

COc1ccc(C(O)/C(=N\NC(N)=S)c2nc3ccc([N+](=O)[O-])cc3nc2O)cc1OC (stereo not given)
inactive: SW-620 > 100 µM | RXF 393 > 100 µM | OVCAR-5 > 100 µM | OVCAR-4 > 100 µM | OVCAR-8 > 100 µM | IGROV-1 > 100 µM | COLO 205 > 100 µM | ACHN > 100 µM | NCI-H460 > 100 µM | NCI-H23 > 100 µM | LOX IMVI > 100 µM | CCRF-CEM > 100 µM | SK-MEL-28 > 100 µM

CCOC(=O)C1=C(c2ccccc2)N(C(C)=O)Cc2ccccc21
inactive: SW-620 34.8 µM | RXF 393 19.4 µM | OVCAR-5 21.7 µM | OVCAR-4 16.7 µM | OVCAR-8 21.3 µM | IGROV-1 23.6 µM | OVCAR-3 18.6 µM | COLO 205 15.9 µM | ACHN 16.1 µM | SF-539 16.3 µM | NCI-H460 14.3 µM | NCI-H23 12.6 µM | SNB-19 44.6 µM | LOX IMVI 16 µM | CCRF-CEM 16.4 µM | SK-MEL-28 16.8 µM

O[C@]12c3ccccc3C1CCCCC2N1CCOCC1 (stereo not given in full)
inactive: SW-620 > 100 µM | RXF 393 > 100 µM | OVCAR-4 > 100 µM | OVCAR-8 > 100 µM | COLO 205 > 100 µM | ACHN > 100 µM | NCI-H460 > 100 µM | NCI-H23 > 100 µM | SNB-19 > 100 µM | LOX IMVI > 100 µM | CCRF-CEM > 100 µM | SK-MEL-28 > 100 µM

CC1=N/C(=C\c2ccc([N+](=O)[O-])cc2)C(=O)O1
inactive: SW-620 > 100 µM | RXF 393 > 100 µM | OVCAR-5 > 100 µM | OVCAR-4 > 100 µM | OVCAR-8 > 100 µM | IGROV-1 > 100 µM | OVCAR-3 > 100 µM | COLO 205 > 100 µM | ACHN > 100 µM | SF-539 > 100 µM | NCI-H460 > 100 µM | NCI-H23 > 100 µM | SNB-19 > 100 µM | SK-MEL-28 > 100 µM

NC1c2ccccc2Nc2ccccc21
inactive: SW-620 3.66 µM | RXF 393 6.24 µM | OVCAR-5 5.04 µM | CAKI-1 3.63 µM | OVCAR-8 4.34 µM | IGROV-1 2.95 µM | OVCAR-3 6.08 µM | COLO 205 2.21 µM | ACHN 4.9 µM | NCI-H460 2.76 µM | NCI-H23 4.74 µM | SNB-19 5.18 µM | LOX IMVI 3.53 µM | CCRF-CEM 5.2 µM | SK-MEL-28 3.54 µM

CCCCCC/C=C/CCCCCCCc1cccc(O)c1C(=O)O
inactive: SW-620 62.4 µM | OVCAR-5 > 100 µM | OVCAR-4 > 100 µM | CAKI-1 > 100 µM | OVCAR-8 50.8 µM | IGROV-1 44.9 µM | OVCAR-3 42.3 µM | COLO 205 > 100 µM | ACHN 85.5 µM | SF-539 59.4 µM | NCI-H460 9.75 µM | NCI-H23 38.5 µM | SNB-19 34.7 µM | LOX IMVI 70.6 µM | CCRF-CEM 39.5 µM | SK-MEL-28 83 µM

O=C1C2=C(C(c3ccccc3)=C1c1ccccc1)c1ccccc1C1(c3ccccc3)C2=C(O)C(c2ccccc2)=C1c1ccccc1 (stereo not given)
inactive: SW-620 > 100 µM | RXF 393 > 100 µM | OVCAR-5 > 100 µM | OVCAR-4 > 100 µM | CAKI-1 > 100 µM | OVCAR-8 > 100 µM | IGROV-1 > 100 µM | OVCAR-3 > 100 µM | COLO 205 > 100 µM | ACHN > 100 µM | SF-539 > 100 µM | NCI-H460 > 100 µM | NCI-H23 > 100 µM | LOX IMVI > 100 µM | SK-MEL-28 > 100 µM

CCOC(=O)c1ccc(N2C(=O)/C(=C\OC)c3ccccc3C2=O)cc1
inactive: SW-620 33.8 µM | RXF 393 11.2 µM | OVCAR-5 43.1 µM | OVCAR-4 43.6 µM | CAKI-1 33.4 µM | OVCAR-8 20 µM | IGROV-1 25.2 µM | OVCAR-3 36.6 µM | COLO 205 94.4 µM | ACHN 42.4 µM | SF-539 32.4 µM | NCI-H23 37.2 µM | SNB-19 34 µM | SK-MEL-28 24.7 µM

COC(=O)C1CC2(CC3=C1CCCC3)OCCO2 (stereo not given)
inactive: SW-620 > 100 µM | RXF 393 > 100 µM | OVCAR-4 > 100 µM | CAKI-1 > 100 µM | OVCAR-8 > 100 µM | IGROV-1 > 100 µM | OVCAR-3 > 100 µM | COLO 205 > 100 µM | SF-539 > 100 µM | NCI-H460 > 100 µM | NCI-H23 > 100 µM | SNB-19 > 100 µM | LOX IMVI > 100 µM | CCRF-CEM > 100 µM | SK-MEL-28 > 100 µM

On1c(-c2ccccc2)c(-c2c(-c3ccccc3)n(O)c3ccccc23)c2ccccc21
inactive: RXF 393 20.9 µM | OVCAR-4 52.1 µM | OVCAR-8 26.1 µM | OVCAR-3 38 µM | ACHN 29.9 µM | SF-539 24.8 µM | NCI-H460 23.4 µM | NCI-H23 27.3 µM | SNB-19 67.5 µM | LOX IMVI 26.2 µM | CCRF-CEM 34.3 µM | SK-MEL-28 61.9 µM

CN(C)CC/C(=N\Nc1ccc([N+](=O)[O-])cc1)c1ccccc1
inactive: SW-620 13.4 µM | RXF 393 4.5 µM | OVCAR-5 15 µM | OVCAR-4 18.3 µM | OVCAR-8 14 µM | IGROV-1 11 µM | OVCAR-3 16.3 µM | COLO 205 14.9 µM | ACHN 2.61 µM | SF-539 7.28 µM | NCI-H460 9.48 µM | NCI-H23 13.3 µM | SNB-19 15 µM | LOX IMVI 5.25 µM | CCRF-CEM 7.23 µM | SK-MEL-28 12.7 µM

N#Cc1c2c(c(N=P(c3ccccc3)(c3ccccc3)c3ccccc3)n3c1nc1ccccc13)CCCC2
inactive: SW-620 20.8 µM | RXF 393 46.2 µM | OVCAR-4 23.4 µM | CAKI-1 30 µM | OVCAR-8 13 µM | IGROV-1 29.2 µM | OVCAR-3 15.3 µM | COLO 205 11.5 µM | ACHN 15.7 µM | SF-539 45.1 µM | NCI-H460 13.3 µM | SNB-19 11.9 µM | LOX IMVI 16.7 µM | CCRF-CEM 16.7 µM | SK-MEL-28 43.7 µM
